Reference: patent US12501900B2, “Heterocyclyl pyridazine as fungicidal compounds” (Bayer Aktiengesellschaft, priority 2018, dated 2025)

How the values were obtained:
Alternaria brassicae = test: In vivo preventive test on Alternaria brassicae (leaf spot on radish or cabbage); settings: 144 h, 500 ppm of active ingredient, preventive spray on radish or cabbage, evaluated 6 days after inoculation, read-out: efficacy
[1] = tested on: Colletotrichum lindemuthianum; test: In vivo preventive test on Colletotrichum lindemuthianum (leaf spot on bean); settings: 168 h, 500 ppm of active ingredient, preventive spray on bean, evaluated 7 days after inoculation, read-out: efficacy
Alternaria alternata = Alternaria alternata in vitro cell test; assay type: cell-based; settings: 120 h, 20 ppm of active ingredient, liquid culture, 5 days incubation, read-out: efficacy (inhibition of fungal growth)

C=C(OCC)c1cc(C2=NOCC(Cc3ccc(C)cc3C)N2)c(Oc2cccc(C(F)(F)F)c2)nn1 (racemic) [I-009, rac-5-[(2,4-dimethylphenyl)methyl]-3-[6-(1-ethoxyvinyl)-3-[3-(trifluoro-methyl)phenoxy]pyridazin-4-yl]-5,6-dihydro-4H-1,2,4-oxadiazine]
90 to 100%: pest or weed control at 500 ppm (Alternaria brassicae) | pest or weed control at 500 ppm [1] | inhibition at 20 ppm (Alternaria alternata)

COCCOc1c(Cl)nnc(Oc2cccc(C(F)(F)F)c2)c1C1=NOCC(Cc2ccc(C)cc2C)N1 (racemic) [I-072, rac-3-[6-chloro-5-(2-methoxyethoxy)-3-[3-(trifluoro-methyl)phenoxy]pyridazin-4-yl]-5-[(2,4-dimethylphenyl)methyl]-5,6-dihydro-4H-1,2,4-oxadiazine]
90 to 100%: pest or weed control at 500 ppm (Alternaria brassicae) | pest or weed control at 500 ppm [1] | inhibition at 20 ppm (Alternaria alternata)

FC(F)(F)c1cccc(Oc2nnc(Cl)cc2C2=NOCC(Cc3ccc(Br)cc3Cl)N2)c1 (racemic) [I-016, rac-5-[(4-bromo-2-chloro-phenyl)methyl]-3-[6-chloro-3-[3-(trifluoromethyl)phenoxy]pyridazin-4-yl]-5,6-dihydro-4H-1,2,4-oxadiazine]
90 to 100%: pest or weed control at 500 ppm (Alternaria brassicae) | pest or weed control at 500 ppm [1] | inhibition at 20 ppm (Alternaria alternata)

COc1cccc(Oc2nnc(Cl)cc2C2=NOCC(Cc3ccc(C)cc3C)N2)c1F (racemic) [I-005, rac-3-[6-chloro-3-(2-fluoro-3-methoxy-phenoxy)pyridazin-4-yl]-5-[(2,4-dimethylphenyl)methyl]-5,6-dihydro-4H-1,2,4-oxadiazine]
90 to 100%: pest or weed control at 500 ppm (Alternaria brassicae) | pest or weed control at 500 ppm [1] | inhibition at 20 ppm (Alternaria alternata)
